Assay results taken from patent publication US20200384014A1, “Pulsed Administration Of Inhaled Nitric Oxide For The Treatment Of Pulmonary Hypertension” (Bellerophon Pulse Technologies LLC, priority 2017, published 2020).

System: systolic pulmonary arterial pressure (sPAP) in subjects with PH-COPD
Experiment: Phase 2 placebo-controlled clinical study of pulsed iNO in subjects with PH-COPD on LTOT (IK-7002-COPD-201; NCT01728220)
Type: in vivo, human
Parameters: Average Change in sPAP vs Baseline: unit not given beside the values
Details: for Average Change in sPAP vs Baseline: PH-COPD subjects on LTOT, echocardiography
Excerpt: This study was a Phase 2, placebo-controlled, double-blind, randomized, two-part, dose-confirming clinical study characterizing the pharmacodynamic effects of pulsed iNO versus placebo in subjects with PH-COPD on LTOT (IK-7002-COPD-201; NCT01728220). The primary outcome of this study was change in systolic pulmonary arterial pressure (sPAP) from baseline after treatment with iNO (measured by 2D transthoracic echocardiography with Doppler). The secondary outcome was the occurrence of a decrease ≥5 mm Hg of partial pressure of oxygen in arterial blood (PaO2) from baseline after treatment with iNO.
Subjects also had tricuspid regurgitation velocity (TRV)≥2.9 m/s as measured by echocardiogram, a post-bronchodilatory forced expiratory volume in 1 second/forced vital capacity (FEV1/FVC)<0.7 and a FEV1<60% predicted. All subjects were at least 40 years old and were former smokers with at least 10 pack-years of tobacco cigarette smoking before study entry. All subjects also had been receiving LTOT for at least 3 months for at least 10 hours per day.
PH-COPD subjects were administered pulsed iNO at a dose of 3, 10, 15, 30 or 75 mcg/IBW kg/hr for at least 20 minutes, or received pulsed placebo (99.999% N2) for at least 20 minutes. The doses of 3 and 10 mcg/kg IBW/hr were administered from a mini-cylinder having 2,440 ppm NO and the doses of 15, 30 and 75 mcg/kg IBW/hr were administered from a mini-cylinder having 4,880 ppm NO.
The NO delivery device delivered gas comprising NO in a pulsatile manner at the beginning of the patient's breath. The minimum pulse volume is limited and for lower doses, can require 1 or more breaths to be skipped to maintain a constant dose in mcg/kg IBW/hr.

[N]=O [iNO, nitric oxide]
Average Change in sPAP vs Baseline (pulsed iNO 10 mcg/kg IBW/hr for at least 20 minutes, N=21): −4.4 | Average Change in sPAP vs Baseline (pulsed iNO 15 mcg/kg IBW/hr for at least 20 minutes, N=21): −2.4 | Average Change in sPAP vs Baseline (pulsed iNO 30 mcg/kg IBW/hr for at least 20 minutes, N=24): −4.5 | Average Change in sPAP vs Baseline (pulsed iNO 75 mcg/kg IBW/hr for at least 20 minutes, N=24): −4.3 | Efficacy (decrease in sPAP), in words (pulsed iNO 3 mcg/kg IBW/hr): ineffective | Efficacy (decrease in sPAP), in words (pulsed iNO 10 mcg/kg IBW/hr): showed efficacy | Efficacy (decrease in sPAP), in words (pulsed iNO 15 mcg/kg IBW/hr): did not show efficacy | Efficacy (decrease in sPAP), in words (pulsed iNO 30 mcg/kg IBW/hr): showed efficacy | Efficacy (decrease in sPAP), in words (pulsed iNO 75 mcg/kg IBW/hr): showed efficacy
